Experiment [1] has as its target Carbonic anhydrase 2 (Homo sapiens, UniProt P00918).
Description: Inhibition of recombinant human carbonic anhydrase 2 incubated for 6 hrs prior to testing measured for 10 to 100 secs by phenol red-based stopped-flow CO2 hydration assay
In experiment [2] the target is Carbonic anhydrase 4 (Homo sapiens, UniProt P22748).
Description: Inhibition of recombinant human carbonic anhydrase 4 incubated for 6 hrs prior to testing measured for 10 to 100 secs by phenol red-based stopped-flow CO2 hydration assay
Experiment [3] addresses Carbonic anhydrase 7 (Homo sapiens, UniProt P43166).
Description: Inhibition of recombinant human carbonic anhydrase 7 incubated for 6 hrs prior to testing measured for 10 to 100 secs by phenol red-based stopped-flow CO2 hydration assay
Experiment [4] addresses Carbonic anhydrase 1 (Homo sapiens, UniProt P00915).
Description: Inhibition of recombinant human carbonic anhydrase 1 incubated for 6 hrs prior to testing measured for 10 to 100 secs by phenol red-based stopped-flow CO2 hydration assay
Experiment [5] deals with Oryctolagus cuniculus. The experiment in a line: Antiglaucoma activity in hypertonic saline solution-induced New Zealand albino rabbit model of ocular hypertension assessed as reduction in intraocular pressure at 1% administered topically to eye measured after 240 mins by pneumotonometric- method. In kind it is functional.

Chain of Carbonic anhydrase 7 (P43166 whole entry): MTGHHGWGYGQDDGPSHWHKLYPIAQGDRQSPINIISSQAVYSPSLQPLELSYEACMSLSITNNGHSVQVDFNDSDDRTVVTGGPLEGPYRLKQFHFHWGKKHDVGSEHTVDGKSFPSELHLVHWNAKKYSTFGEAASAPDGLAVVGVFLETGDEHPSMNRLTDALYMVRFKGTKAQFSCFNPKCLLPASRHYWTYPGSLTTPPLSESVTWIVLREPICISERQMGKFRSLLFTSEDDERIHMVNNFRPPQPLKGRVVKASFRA
Chain of Carbonic anhydrase 1 (P00915 whole entry): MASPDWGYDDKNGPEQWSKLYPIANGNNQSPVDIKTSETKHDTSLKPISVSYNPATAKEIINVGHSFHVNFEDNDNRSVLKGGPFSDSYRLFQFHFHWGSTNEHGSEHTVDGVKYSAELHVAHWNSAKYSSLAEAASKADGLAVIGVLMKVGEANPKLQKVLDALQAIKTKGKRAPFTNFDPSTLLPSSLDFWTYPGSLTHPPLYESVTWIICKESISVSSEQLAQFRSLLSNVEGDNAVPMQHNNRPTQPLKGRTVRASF
Chain of Carbonic anhydrase 4 (P22748 whole entry): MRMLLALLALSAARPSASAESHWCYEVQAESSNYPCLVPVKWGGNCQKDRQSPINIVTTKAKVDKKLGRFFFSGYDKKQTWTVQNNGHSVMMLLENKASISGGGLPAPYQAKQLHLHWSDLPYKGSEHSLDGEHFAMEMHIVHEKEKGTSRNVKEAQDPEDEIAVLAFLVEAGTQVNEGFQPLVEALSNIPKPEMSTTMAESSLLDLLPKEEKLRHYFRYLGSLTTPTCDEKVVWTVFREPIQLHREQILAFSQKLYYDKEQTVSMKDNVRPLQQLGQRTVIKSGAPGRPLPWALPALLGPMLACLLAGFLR

As to `COc1ccc(N/N=C(\C(C)=O)C(=O)Nc2ccc(S(N)(=O)=O)cc2)cc1OC`, the Ki was 5 nM in experiment [1], 1480 nM in experiment [2], 4.4 nM in experiment [3] and 59.3 nM in experiment [4].

As for `NS(=O)(=O)c1ccc(NC(=O)/C(Cl)=N/Nc2ccccc2)cc1`, the inhibition constant (Ki) in experiment [1] was 40.6 nM; in experiment [2] it was 7360 nM; in experiment [3], 68.1 nM; in experiment [4] it was 227 nM.

For `NS(=O)(=O)c1ccc(NC(=O)/C(Cl)=N/Nc2ccc(Cl)cc2)cc1`, the Ki was 3 nM in experiment [1], 907 nM in experiment [2], 6.1 nM in experiment [3] and 44.1 nM in experiment [4].

As for `NS(=O)(=O)c1ccc(NC(=O)/C(Cl)=N/Nc2ccc(F)cc2)cc1`, the Ki in experiment [1] was 34.8 nM; in experiment [2] it was 7380 nM; in experiment [3] it was 46.6 nM; in experiment [4], 296 nM.

In the case of `CC(=O)/C(=C\c1ccccc1)C(=O)Nc1ccc(S(N)(=O)=O)cc1`, the inhibitory constant (Ki) came out at 4.4 nM in experiment [1], 958 nM in experiment [2], 44.4 nM in experiment [3] and 68.7 nM in experiment [4].

`CC(=O)/C(=N\Nc1cccc([N+](=O)[O-])c1)C(=O)Nc1ccc(S(N)(=O)=O)cc1`: the Ki was 71.4 nM in experiment [1], over 10000 nM in experiment [2], 792 nM in experiment [3] and 751 nM in experiment [4].

`CC(=O)/C(=C\c1ccccc1Cl)C(=O)Nc1ccc(S(N)(=O)=O)cc1`: the Ki in experiment [1] worked out at 0.36 nM; in experiment [2], 383 nM; in experiment [3] it was 2.9 nM; in experiment [4], 7.3 nM. Moreover, the Activity in experiment [5] is 2 mmHg.

Take `CC(=O)/C(=N\Nc1ccc(F)cc1)C(=O)Nc1ccc(S(N)(=O)=O)cc1`: the Ki is 8.1 nM in experiment [1], over 10000 nM in experiment [2], 3320 nM in experiment [3] and 2670 nM in experiment [4].

In the case of `CC(=O)/C(=N\Nc1ccc(Cl)cc1)C(=O)Nc1ccc(S(N)(=O)=O)cc1`, the Ki in experiment [1] is 5.2 nM; in experiment [2] it was over 10000 nM; in experiment [3], 1690 nM; in experiment [4], 2640 nM.

As for `COc1ccc(N/N=C(\Cl)C(=O)Nc2ccc(S(N)(=O)=O)cc2)cc1`, the inhibition constant (Ki) in experiment [1] was determined as 21.1 nM; in experiment [2] it was 6420 nM; in experiment [3] it was 55.2 nM; in experiment [4], 86.1 nM.

As to `CC(=O)/C(=C\c1ccc(Cl)cc1)C(=O)Nc1ccc(S(N)(=O)=O)cc1`, the Ki in experiment [1] stood at 0.61 nM; in experiment [2] it was 145 nM; in experiment [3], 4.3 nM; in experiment [4] it was 41.1 nM. Besides, in experiment [5], the Activity was found to be 1.3 mmHg.

In the case of `CC(=O)/C(=N\Nc1ccc(C#N)cc1)C(=O)Nc1ccc(S(N)(=O)=O)cc1`, the inhibitory constant (Ki) in experiment [1] is 52.2 nM; in experiment [2], over 10000 nM; in experiment [3], 762 nM; in experiment [4], 513 nM.

For the molecule `NS(=O)(=O)c1ccc(NC(=O)/C(Cl)=N/Nc2ccc(Br)cc2)cc1`, the Ki was 262 nM in experiment [1], over 10000 nM in experiment [2], 1030 nM in experiment [3] and 926 nM in experiment [4].

For `COc1ccc(N/N=C(\C(C)=O)C(=O)Nc2ccc(S(N)(=O)=O)cc2)cc1`, the inhibition constant (Ki) is 273 nM in experiment [1], over 10000 nM in experiment [2], 3590 nM in experiment [3] and 704 nM in experiment [4].

For `CC(=O)/C(=C\c1cccc([N+](=O)[O-])c1)C(=O)Nc1ccc(S(N)(=O)=O)cc1`, the inhibition constant Ki in experiment [1] came out at 6.9 nM; in experiment [2], 387 nM; in experiment [3], 46.3 nM; in experiment [4] it was 75.5 nM.

Regarding `CC(=O)CC(=O)Nc1ccc(S(N)(=O)=O)cc1`, the inhibition constant (Ki) came to 39.5 nM in experiment [1], 885 nM in experiment [2], 273 nM in experiment [3] and 69.2 nM in experiment [4].

As for `CC(=O)/C(=C\c1cccs1)C(=O)Nc1ccc(S(N)(=O)=O)cc1`, the inhibition constant Ki came out at 2.9 nM in experiment [1], 810 nM in experiment [2], 5.3 nM in experiment [3] and 49.1 nM in experiment [4].

Turning to `CC(=O)/C(=N\Nc1ccc(Br)cc1)C(=O)Nc1ccc(S(N)(=O)=O)cc1`, the inhibitory constant (Ki) in experiment [1] is 371 nM; in experiment [2], over 10000 nM; in experiment [3] it was over 10000 nM; in experiment [4] it was over 10000 nM.

For `CC(=O)/C(=C\c1ccc(F)cc1Cl)C(=O)Nc1ccc(S(N)(=O)=O)cc1`, the Ki was determined as 5.6 nM in experiment [1], 222 nM in experiment [2], 23.5 nM in experiment [3] and 52.7 nM in experiment [4].

For the molecule `CC(=O)/C(=N\Nc1ccccc1)C(=O)Nc1ccc(S(N)(=O)=O)cc1`, the Ki in experiment [1] is 4.3 nM; in experiment [2] it was over 10000 nM; in experiment [3], 647 nM; in experiment [4] it was 82.2 nM.

Regarding `COc1ccc(/C=C(\C(C)=O)C(=O)Nc2ccc(S(N)(=O)=O)cc2)cc1`, the Ki in experiment [1] came out at 0.45 nM; in experiment [2] it was 609 nM; in experiment [3], 3.1 nM; in experiment [4] it was 15.3 nM. The Activity in experiment [5] worked out at 1.5 mmHg.

The values are drawn from ChEMBL document CHEMBL4402561, “Discovery of Potent Dual-Tailed Benzenesulfonamide Inhibitors of Human Carbonic Anhydrases Implicated in Glaucoma and in Vivo Profiling of Their Intraocular Pressure-Lowering Action” (J Med Chem, 2020).
